# Results reported in patent publication US9127079B2, “Inhibitors of phosphatase and tensin homolog (PTEN) conjugates” (THE UNIVERSITY OF BRITISH COLUMBIA, priority 2009, dated 2015).
# Tests used:
# [1] = Transgenic G37R SOD1 mouse model of ALS: survival and behavioural outcomes; type: in vivo; settings: IP 16 mg/kg 3 times a week
# Protocol: Transgenic mice expressing G37R SOD1 (G37R) at almost 8 months of age and having no apparent pathologic symptoms were double blinded with a designated code and divided into 3 groups of 12 mice (6 male and 6 female) maintained on a pure C57BL6 background in the local animal facility under a 12 h light cycle with food and drinking water ad libitum. All mice were genotyped by PCR. The use of animals as described in this study was carried out according to The Guide to the Care and Use of Experimental Animals of the Canadian Council on Animal Care. […].
# Body weight and neurological scores such as HLR scores and Rota Rod functions were regularly monitored and recorded. End points and survival dates were determined when mice were not able to stand up within 20 s when moved on the side. Disabled mice were anesthetized and sacrificed according to the guidelines of The University of British Columbia for the care and use of laboratory animals. All collected data were subjected to statistical analysis using Kaplan-Meier plots and Log-rank tests.
# PTEN = assay: Western blotting of nuclear fractions from cultured neurons: PTEN nuclear translocation; type: cell-based, rat; settings: NMDA stimulation
# Protocol: Dissociated cultures of rat cortical or hippocampal neurons were prepared from 18-d-old Sprague Dawley rat embryos as described previously (Mielke and Wang 2005). To obtain mixed cultures enriched with neurons, uridine (10 μM) and 5-Fluor-T-deoxyuridine (10 μM) were added to the culture medium at 3 d in vitro (DIV) and maintained for 48 h to inhibit non-neuronal cell proliferation before the cultures were returned to the normal culture medium. Mature neurons (12-14 DIV) were used for experiments.
# In order to induce excitotoxicity, 12-14 DIV cultured neurons were washed and transferred to Mg2+-free extracellular solution (ECS) containing the following (in mM): 25 HEPES acid, 140 NaCl, 33 glucose, 5.4 KCl, and 1.3 CaCl2, with pH 7.35 and osmolarity 320-330 mOsm. […]
# For western blotting, 10 μg of the nuclear extract or 40 μg of total cell lysate (solubilized by 1% SDS, 1 mM EGTA, 1 mM EDTA, 1 mM DTT, 2 mM sodium orthovanadate, and protease inhibitors cocktail in PBS) from each treatment condition was separated with SDS-PAGE, transferred onto a polyvinylidene difluoride (PVDF) membrane, and probed with the relevant antibodies. […] Band intensities were quantified using NIH ImageJ™ software and normalized to the quantity of a nuclear marker or β-tubulin in each sample lane.
# [2] = Locomotor activity after cerebral ischemia; type: in vivo, rat; settings: vs other groups
# Protocol: Adult male Sprague-Dawley rats (weight 200 g) were used in this study. All surgical procedures were performed using sterile/aseptic techniques in accordance with Institutional guidelines. Rats were anesthetized with chloral hydrate (0.4 g/kg IP) and subjected to cerebral ischemia. Ligation of the right middle cerebral artery (MCA) and bilateral common carotids arteries (CCAs) was performed by methods described previously (Shyu et al. 2005). The CCAs were clamped with non-traumatic arterial clips. The right MCA was ligated with a 10-0 nylone suture. After 90 min of ischemia, the suture on the MCA and the arterial clips on the CCAs were removed to allow reperfusion. Core body temperature was monitored with a thermistor probe (Hewlett-Packard™ Model 21090A probe, Hewlett-Packard Company™, Andover, Mass.), and maintained at 37° C. with a heating pad during anesthesia. […]
# Behavioral assessments were measured on day 28 after stroke. […] The baseline-test scores were recorded in order to normalize those taken after cerebral ischemia. The elevated body swing test (EBST) was used to assess body asymmetry after MCA ligation and evaluated quantitatively as previously described (Shyu et al. 2004). […] The frequency of initial head swing contra-lateral to the ischemic side was counted in twenty continuous tests and was normalized, as follows: % recovery=[1−(lateral swings in twenty tests−10)/10×100%. […]
substance,measurement,setting,value
KEIVSRNKRRYQED-YGRKKRRQRRR (KEIVSRNKRRYQEDYGRKKRRQRRR; PTEN K13 interference peptide conjugated to TAT protein transduction domain) [Peptide-K13],behavioural outcomes,[1]; female ALS mice,improves behavioural outcomes
same,survival,[1]; female ALS mice,prolongs the survival
same,survival,[1]; male ALS mice,no statistically significant improvement
same,PTEN nuclear translocation (western blotting of nuclear fractions),PTEN,prevents PTEN nuclear translocation
same,"locomotor activities (vertical activity, vertical time, number of vertical movements)",[2]; given 2 hours after ischemia,significantly better
same,"locomotor activities (vertical activity, vertical time, number of vertical movements)",[2]; given 6 hours after ischemia,significantly better
